Data as given in PubChem BioAssay AID248 (DTP/NCI, 2004).
Several values for one entry are separate records, joined by “and”; a condition that tells them apart may be missing. Equal values may be shown once. Toxic doses and inconclusive results are not listed. No stated cut-off is given here; in the data, active means T/C of 150% or more; inactive means T/C below 125%.

Tested on: L1210 leukemia ip in BDF1 mice, survival T/C
Experiment: NCI In Vivo Anticancer Drug Screen. Data for tumor model L1210 Leukemia (intraperitoneal) in B6D2F1 (BDF1) mice
Settings: endpoint: mean survival time, higher = longer survival
Outline: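 In this screen, tumor-bearing mice given compound are compared to those given vehicle, and their survival values are reported as a treated-to-control quotient.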

[1] = dose: 100.0 mg/kg/injection, schedule: Q01DX001 (ip), vehicle: saline
[2] = dose: 100.0 mg/kg/injection, schedule: Q04DX003 (ip), vehicle: saline
[3] = dose: 200.0 mg/kg/injection, schedule: Q01DX001 (ip), vehicle: saline
[4] = dose: 200.0 mg/kg/injection, schedule: Q04DX003 (ip), vehicle: saline
[5] = dose: 400.0 mg/kg/injection, schedule: Q01DX001 (ip), vehicle: saline
[6] = dose: 400.0 mg/kg/injection, schedule: Q04DX003 (ip), vehicle: saline
[7] = dose: 100.0 mg/kg/injection, schedule: Q01DX009 (ip), vehicle: saline with Tween-80
[8] = dose: 200.0 mg/kg/injection, schedule: Q01DX009 (ip), vehicle: saline with Tween-80
[9] = dose: 400.0 mg/kg/injection, schedule: Q01DX009 (ip), vehicle: saline with Tween-80
[10] = dose: 100.0 mg/kg/injection, schedule: Q04DX003 (ip), vehicle: saline with Tween-80
[11] = dose: 100.0 mg/kg/injection, schedule: Q01DX009 (ip), vehicle: Klucel (hydroxypropylcellulose) (HPC)
[12] = dose: 100.0 mg/kg/injection, schedule: Q04DX003 (ip), vehicle: Klucel (hydroxypropylcellulose) (HPC)
[13] = dose: 200.0 mg/kg/injection, schedule: Q01DX009 (ip), vehicle: Klucel (hydroxypropylcellulose) (HPC)
[14] = dose: 400.0 mg/kg/injection, schedule: Q01DX009 (ip), vehicle: Klucel (hydroxypropylcellulose) (HPC)
[15] = dose: 400.0 mg/kg/injection, schedule: Q04DX003 (ip), vehicle: Klucel (hydroxypropylcellulose) (HPC)
[16] = dose: 200.0 mg/kg/injection, schedule: Q04DX003 (ip), vehicle: Klucel (hydroxypropylcellulose) (HPC)
[17] = dose: 100.0 mg/kg/injection, schedule: Q04DX002 (ip), vehicle: saline with Tween-80
[18] = dose: 200.0 mg/kg/injection, schedule: Q04DX002 (ip), vehicle: saline with Tween-80
[19] = dose: 400.0 mg/kg/injection, schedule: Q04DX002 (ip), vehicle: saline with Tween-80

Measured: T/C

CCOP(=O)(OCC)ON=C(Cl)Cl
inactive: dose: 0.78 mg/kg/injection, schedule: Q01DX009 (ip), vehicle: saline 97 % of control | dose: 0.78 mg/kg/injection, schedule: Q04DX002 (ip), vehicle: saline 101 % of control | dose: 1.56 mg/kg/injection, schedule: Q01DX009 (ip), vehicle: saline 97 % of control | dose: 1.56 mg/kg/injection, schedule: Q04DX002 (ip), vehicle: saline 98 % of control | dose: 3.12 mg/kg/injection, schedule: Q01DX009 (ip), vehicle: Klucel (hydroxypropylcellulose) (HPC) 95 % of control | dose: 3.12 mg/kg/injection, schedule: Q01DX009 (ip), vehicle: saline 93 % of control | dose: 3.12 mg/kg/injection, schedule: Q04DX002 (ip), vehicle: saline 101 % of control and 92 % of control | dose: 4.6 mg/kg/injection, schedule: Q01DX009 (ip), vehicle: Klucel (hydroxypropylcellulose) (HPC) 105 % of control | dose: 7.0 mg/kg/injection, schedule: Q01DX009 (ip), vehicle: Klucel (hydroxypropylcellulose) (HPC) 96 % of control

OC(c1ccccc1)C1(N2CCCCC2)CCCCC1 (stereo not drawn)
inactive: dose: 100.0 mg/kg/injection, schedule: Q01DX001 (ip), vehicle: Klucel (hydroxypropylcellulose) (HPC) 94 % of control | dose: 200.0 mg/kg/injection, schedule: Q01DX001 (ip), vehicle: Klucel (hydroxypropylcellulose) (HPC) 100 % of control | dose: 400.0 mg/kg/injection, schedule: Q01DX001 (ip), vehicle: Klucel (hydroxypropylcellulose) (HPC) 96 % of control

O=S(=O)(Oc1ccc(-c2ccccc2)cc1)C1CC1c1ccccc1 (stereo not drawn)
inactive: [1] 93 % of control | [2] 93 % of control | [3] 97 % of control | [4] 96 % of control | [5] 90 % of control | [6] 91 % of control

CCOC(=O)CC1COC(=O)C1C(=O)OCC (stereo not drawn)
inactive: dose: 12.5 mg/kg/injection, schedule: Q01DX009 (ip), vehicle: saline with Tween-80 105 % of control | dose: 25.0 mg/kg/injection, schedule: Q01DX009 (ip), vehicle: saline with Tween-80 105 % of control and 120 % of control | dose: 50.0 mg/kg/injection, schedule: Q01DX009 (ip), vehicle: saline with Tween-80 95 % of control | [7] 98 % of control and 122 % of control | [8] 118 % of control | [9] 106 % of control

COc1ccc(C2CCc3cc4c(cc3/C2=N/O)OCO4)cc1OC (stereo not drawn)
inactive: [7] 98 % of control | [10] 90 % of control | [8] 92 % of control | dose: 200.0 mg/kg/injection, schedule: Q04DX003 (ip), vehicle: saline with Tween-80 90 % of control | [9] 105 % of control | dose: 400.0 mg/kg/injection, schedule: Q04DX003 (ip), vehicle: saline with Tween-80 91 % of control

Cc1cc(C(=O)O)c(C(C)C)cc1C(=O)O
inactive: dose: 100.0 mg/kg/injection, schedule: Q04DX003 (ip), vehicle: other 101 % of control | dose: 200.0 mg/kg/injection, schedule: Q04DX003 (ip), vehicle: other 98 % of control | dose: 400.0 mg/kg/injection, schedule: Q04DX003 (ip), vehicle: other 92 % of control

O=S(=O)(CBr)CBr
inactive: [1] 98 % of control | [3] 95 % of control | [5] 112 % of control

CC(C)C[As](C)(=O)O
inactive: dose: 66.0 mg/kg/injection, schedule: Q01DX009 (ip), vehicle: saline 107 % of control | dose: 100.0 mg/kg/injection, schedule: Q01DX009 (ip), vehicle: saline 115 % of control | dose: 150.0 mg/kg/injection, schedule: Q01DX009 (ip), vehicle: saline 94 % of control

CCCCCCCCCCCCCCCC(=O)N(CCCCN(CCCN(C)C)C(=O)CCCCCCCCCCCCCCC)CCCN(C)C
inactive: [10] 91 % of control

O=[N+]([O-])c1ccccc1N=N/C(Cc1ccccc1)=N\Nc1ccccc1
inactive: dose: 50.0 mg/kg/injection, schedule: Q01DX009 (ip), vehicle: Klucel (hydroxypropylcellulose) (HPC) 92 % of control | [11] 92 % of control | [12] 89 % of control | [13] 93 % of control | [14] 94 % of control | [15] 92 % of control

CCC(C)(C(=O)NO)c1ccccc1 (stereo not drawn)
inactive: dose: 100.0 mg/kg/injection, schedule: Q01DX001 (ip), vehicle: saline with Tween-80 110 % of control | dose: 200.0 mg/kg/injection, schedule: Q01DX001 (ip), vehicle: saline with Tween-80 101 % of control

COC(=O)C1C(O)CN2CCCC12 (stereo not drawn)
inactive: [2] 93 % of control | [4] 93 % of control | [6] 93 % of control

CC(C)(C)S(=O)CCO (stereo not drawn)
inactive: dose: 100.0 mg/kg/injection, schedule: Q04DX002 (ip), vehicle: saline 109 % of control | dose: 200.0 mg/kg/injection, schedule: Q04DX002 (ip), vehicle: saline 103 % of control | dose: 400.0 mg/kg/injection, schedule: Q04DX002 (ip), vehicle: saline 103 % of control

Nc1cc2ccccc2cn1
inactive: [12] 112 % of control | [16] 102 % of control | [15] 107 % of control

O=C(NCCN1CCOCC1)Nc1cccc2c1CCCC2
inactive: [17] 94 % of control | [18] 108 % of control | [19] 116 % of control

CC(C)=CCC(OC(=O)C=C(C)C)C1=CC(=O)c2c(O)ccc(O)c2C1=O (stereo not drawn)
inactive: dose: 6.25 mg/kg/injection, schedule: Q01DX009 (ip), vehicle: saline 93 % of control | dose: 6.25 mg/kg/injection, schedule: Q04DX003 (ip), vehicle: saline 98 % of control | dose: 12.5 mg/kg/injection, schedule: Q01DX009 (ip), vehicle: saline 92 % of control | dose: 12.5 mg/kg/injection, schedule: Q04DX003 (ip), vehicle: saline 101 % of control | dose: 25.0 mg/kg/injection, schedule: Q04DX003 (ip), vehicle: saline 104 % of control

CCOC(=S)NS(=O)(=O)c1ccccc1
inactive: dose: 100.0 mg/kg/injection, schedule: Q01DX001 (ip), vehicle: acetone 98 % of control | dose: 200.0 mg/kg/injection, schedule: Q01DX001 (ip), vehicle: acetone 110 % of control | dose: 400.0 mg/kg/injection, schedule: Q01DX001 (ip), vehicle: acetone 98 % of control

COC1(OC)C2(Cl)CC(c3ccc(Cl)cc3)C1(Cl)C(Cl)=C2Cl (stereo not drawn)
inactive: [7] 110 % of control | [12] 98 % of control | [8] 101 % of control | [16] 105 % of control | [9] 100 % of control | [15] 104 % of control

O=C1NC(=O)C(c2cccc(Cl)c2)N1 (stereo not drawn)
inactive: dose: 50.0 mg/kg/injection, schedule: Q01DX001 (ip), vehicle: saline 106 % of control | [1] 93 % of control | [3] 98 % of control | [5] 104 % of control

Cc1cc(C)c(C)c(Br)c1C
inactive: [11] 92 % of control | [12] 104 % of control | [13] 92 % of control | [16] 112 % of control | [14] 86 % of control | [15] 101 % of control

Cc1nc(N)[nH]c(=O)c1CCC(C)C
inactive: dose: 100.0 mg/kg/injection, schedule: Q04DX002 (ip), vehicle: Klucel (hydroxypropylcellulose) (HPC) 93 % of control | dose: 200.0 mg/kg/injection, schedule: Q04DX002 (ip), vehicle: Klucel (hydroxypropylcellulose) (HPC) 100 % of control | dose: 400.0 mg/kg/injection, schedule: Q04DX002 (ip), vehicle: Klucel (hydroxypropylcellulose) (HPC) 96 % of control

CCC(=O)/C=C/c1ccccc1OC
inactive: [17] 97 % of control | [18] 105 % of control | [19] 105 % of control

CCS(=O)(=O)c1ccc(NC(=O)Oc2ccccc2OC)cc1
inactive: dose: 100.0 mg/kg/injection, schedule: Q01DX001 (ip), vehicle: carboxymethylcellulose (CMC) 89 % of control | dose: 200.0 mg/kg/injection, schedule: Q01DX001 (ip), vehicle: carboxymethylcellulose (CMC) 100 % of control | dose: 400.0 mg/kg/injection, schedule: Q01DX001 (ip), vehicle: carboxymethylcellulose (CMC) 100 % of control
